Among the data in US11208387B2, “Macrocyclic broad spectrum antibiotics” (Genentech, Inc., priority 2019, dated 2021) are MIC values, retold here.

Common to all, as to assay: Serum MIC, broth micro-dilution
Format in all cases: cell-based
In general terms: In broth dilution the organism is exposed to a series of concentrations in liquid medium.

For assay [1], the system named is Acinetobacter baumannii ATCC 17978. The following applies: Acinetobacter baumannii. In short, it runs like this:
(§1)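 Plates held at 35 °C for 22 h after adding bacteria to a final OD600 of 0.0005. Medium was a 1:1 mix of mouse serum and cation-adjusted Mueller Hinton II broth. Ten two-fold compound dilutions began at 64, 4, 0.5 or 0.13 μg/mL, per CLSI microdilution.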

For assay [2], the system named is Escherichia coli strain ATCC 25922. The following applies: Escherichia coli, read-out: E. coli 25922 Serum MIC. In short, it runs like this:
as §1

The subject of assay [3] is Klebsiella pneumoniae ATCC 700603. The following applies: Klebsiella pneumoniae. In short, it runs like this: as §1
For assay [4], the system named is Pseudomonas aeruginosa PA01. As to conditions: Pseudomonas aeruginosa, read-out: P. aeruginosa 01 Serum MIC. The procedure, abridged: as §1
Setting [5] is: ATCC17978, 50% v/v mouse serum in Mueller Hinton II cation adjusted Broth, 35° C., 22 hours, Table 4, read-out: A. baumanii 17978 Serum MIC.
[6] abbreviates: ATCC17978, 50% v/v mouse serum in Mueller Hinton II cation adjusted Broth, 35° C., 22 hours, Table 5, read-out: Acinetobacter baumanii 17978 Serum MIC.
The mark [7] stands for this setting: ATCC25922, 50% v/v mouse serum in Mueller Hinton II cation adjusted Broth, 35° C., 22 hours, Table 4.
[8] abbreviates: ATCC700603, 50% v/v mouse serum in Mueller Hinton II cation adjusted Broth, 35° C., 22 hours, Table 4, read-out: K pneumoniae 700603 Serum MIC.
[9] abbreviates: PA01, 50% v/v mouse serum in Mueller Hinton II cation adjusted Broth, 35° C., 22 hours, Table 4.
The mark [10] stands for this setting: ATCC17978, 50% v/v mouse serum, compounds of Table 1, Table 7, read-out: A. baumanii 17978 Serum MIC.
The mark [11] stands for this setting: ATCC25922, 50% v/v mouse serum, compounds of Table 1, Table 7.
Where [12] appears, read: ATCC700603, 50% v/v mouse serum, compounds of Table 1, Table 7, read-out: K. pneumoniae 700603 Serum MIC.
The mark [13] stands for this setting: PA01, 50% v/v mouse serum, compounds of Table 1, Table 7.

In brackets after ≈: the same amount, converted by molar mass. Where two headings read alike, the source gives them in different places.

Usually MIC stands for the lowest concentration found to suppress growth. As for `C[C@@H]1NC(=O)[C@@H](N(C)C(=O)[C@H](CNS(N)(=O)=O)NC(=O)c2cnc(-c3ccc(C(C)(C)C)cc3)nc2)c2cc(OC[C@H](O)CN)c(O)c(c2)-c2cc(ccc2OC[C@H](O)CN)C[C@@H](C(=O)O)NC1=O` [Example 71, (8S,11S,14S)-3,17-bis[(2R)-3-amino-2-hydroxy-propoxy]-14-[[(2S)-2-[[2-(4-tert-butylphenyl)-pyrimidine-5-carbonyl]amino]-3-(sulfamoylamino)-propanoyl]-methyl-amino]-18-hydroxy-11-methyl-10,13-dioxo-9,12-diazatri-cyclo[13.3.1.12,6]icosa-1(18),2(20),3,5,15(19), 16-hexaene-8-carboxylic acid], the MIC in assay [1] (setting [5]) was 8 µM (≈ 7.83 µg/mL); in assay [1] (setting [6]) it was 8 µM (≈ 7.83 µg/mL); in assay [2] (setting [7]) it was 0.25 µM (≈ 0.245 µg/mL); in assay [3] (setting [8]), 0.5 µM (≈ 0.49 µg/mL); in assay [4] (setting [9]), 8 µM (≈ 7.83 µg/mL).
Regarding `Cc1nc(-c2ccc(C3CCC3)cc2)nc(N)c1C(=O)N[C@@H](CNS(N)(=O)=O)C(=O)N(C)[C@@H]1C(=O)N[C@@H](C)C(=O)N[C@H](C(=O)O)Cc2ccc(OC[C@H](O)CN)c(c2)-c2cc1cc(OC[C@H](O)CN)c2O` [Example 41, (8S,11S,14S)-14-[[(2S)-2-[[4-amino-2-(4-cyclobutylphenyl)-6-methyl-pyrimidine-5-carbonyl]amino]-3-(sulfamoylamino)-propanoyl]-methyl-amino]-3,17-bis[(2R)-3-amino-2-hydroxy-propoxy]-18-hydroxy-11-methyl-10,13-dioxo-9,12-diazatri-cyclo[13.3.1.12,6]icosa-1(18),2(20),3,5,15(19), 16-hexaene-8-carboxylic acid], the MIC in assay [1] (setting [5]) came to 16 µM (≈ 16.1 µg/mL); in assay [1] (setting [6]) it was 16 µM (≈ 16.1 µg/mL); in assay [2] (setting [7]), 1 µM (≈ 1.01 µg/mL); in assay [3] (setting [8]), 1 µM (≈ 1.01 µg/mL); in assay [4] (setting [9]), 16 µM (≈ 16.1 µg/mL).
With `CCCCCOc1ccc(-c2nc(C)c(C(=O)N[C@@H](CCN)C(=O)N(C)[C@@H]3C(=O)N[C@@H](C)C(=O)N[C@H](C(=O)O)Cc4ccc(OCCN)c(c4)-c4cc3ccc4O)c(C)n2)cc1` (racemic) [Example 642], the MIC in assay [1] (setting [10]) turned out to be 71 µM (≈ 60.6 µg/mL); in assay [2] (setting [11]), 25 µM (≈ 21.3 µg/mL); in assay [3] (setting [12]), 1.1 µM (≈ 0.938 µg/mL); in assay [4] (setting [13]), 53 µM (≈ 45.2 µg/mL).
Take `CNc1nc(-c2ccc(C(C)(C)C)cc2)nc(C)c1C(=O)N[C@@H](CNS(N)(=O)=O)C(=O)N(C)[C@@H]1C(=O)N[C@@H](C)C(=O)N[C@H](C(=O)O)Cc2ccc(OC[C@H](O)CN)c(c2)-c2cc1cc(OC[C@H](O)CN)c2O` [Example 56, (8S,11S,14S)-3,17-bis[(2R)-3-amino-2-hydroxy-propoxy]-14-[[(2S)-2-[[2-(4-tert-butylphenyl)-4-methyl-6-(methyl-amino)pyrimidine-5-carbonyl]amino]-3-(sulfamoylamino)-propanoyl]-methyl-amino]-18-hydroxy-11-methyl-10,13-dioxo-9,12-diazatri-cyclo[13.3.1.12,6]icosa-1(18),2(20),3,5,15(19), 16-hexaene-8-carboxylic acid]: the MIC in assay [1] (setting [5]) stood at 6 µM (≈ 6.13 µg/mL); in assay [1] (setting [6]) it was 6 µM (≈ 6.13 µg/mL); in assay [2] (setting [7]), 0.25 µM (≈ 0.256 µg/mL); in assay [3] (setting [8]), 0.5 µM (≈ 0.511 µg/mL); in assay [4] (setting [9]) it was 3 µM (≈ 3.07 µg/mL).
Turning to `C[C@@H]1NC(=O)[C@@H](N(C)C(=O)[C@H](CNS(N)(=O)=O)NC(=O)c2c(N)cc(-c3ccc(C(C)(C)C)cc3O)nc2Cl)c2cc(OC[C@H](O)CN)c(O)c(c2)-c2cc(ccc2OC[C@H](O)CN)C[C@@H](C(=O)O)NC1=O` [Example 61, (8S,11S,14S)-18-hydroxy-11-methyl-14-[methyl-[(2S)-2-[[4-amino-6-(4-tert-butyl-2-hydroxy-phenyl)-2-chloro-pyridine-3-carbonyl]-amino]-3-(sulfamoyl-amino)propanoyl]-amino]-10,13-dioxo-3,17-bis[(2R)-3-amino-2-hydroxy-propoxy]-9,12-diazatricyclo-[13.3.1.12,6]icosa-1(18),2(20),3,5,15(19), 16-hexaene-8-carboxylic acid], the MIC came to 16 µM (≈ 16.7 µg/mL) in assay [1] (setting [5]); 16 µM (≈ 16.7 µg/mL) in assay [1] (setting [6]); 0.38 µM (≈ 0.397 µg/mL) in assay [2] (setting [7]); 0.5 µM (≈ 0.522 µg/mL) in assay [3] (setting [8]); 3 µM (≈ 3.13 µg/mL) in assay [4] (setting [9]).
`CCCCCOc1ccc(-c2nc(C)c(C(=O)N[C@@H](CCN)C(=O)N(C)[C@@H]3C(=O)N[C@@H](C)C(=O)N[C@H](C(=O)O)Cc4ccc(OCCN)c(c4)-c4cc3ccc4OCCN)c(C)n2)cc1` (racemic) [Example 638]: the MIC in assay [1] (setting [10]) came to 64 µM (≈ 57.3 µg/mL); in assay [2] (setting [11]) it was 0.75 µM (≈ 0.672 µg/mL); in assay [3] (setting [12]), 1 µM (≈ 0.896 µg/mL); in assay [4] (setting [13]), 64 µM (≈ 57.3 µg/mL).
Take `Cc1cc(C(C)(C)C)ccc1-c1nc(C)c(C(=O)N[C@@H](CNS(N)(=O)=O)C(=O)N(C)[C@@H]2C(=O)N[C@@H](C)C(=O)N[C@H](C(=O)O)Cc3ccc(OC[C@H](O)CN)c(c3)-c3cc2cc(OC[C@H](O)CN)c3O)c(N)n1` [Example 59, (8S,11S,14S)-14-[[(2S)-2-[[4-amino-2-(4-tert-butyl-2-methyl-phenyl)-6-methyl-pyrimidine-5-carbonyl]amino]-3-(sulfamoylamino)-propanoyl]-methyl-amino]-3,17-bis[(2R)-3-amino-2-hydroxy-propoxy]-18-hydroxy-11-methyl-10,13-dioxo-9,12-diazatricyclo-[13.3.1.12,6]icosa-1(18),2(20),3,5,15(19), 16-hexaene-8-carboxylic acid]: the MIC came to 16 µM (≈ 16.4 µg/mL) in assay [1] (setting [5]); 16 µM (≈ 16.4 µg/mL) in assay [1] (setting [6]); 1 µM (≈ 1.02 µg/mL) in assay [2] (setting [7]); 1 µM (≈ 1.02 µg/mL) in assay [3] (setting [8]); 4 µM (≈ 4.09 µg/mL) in assay [4] (setting [9]).
In the case of `Cc1nc(-c2ccc(C3(C)CC3)cc2)nc(C)c1C(=O)N[C@@H](CNS(N)(=O)=O)C(=O)N(C)[C@@H]1C(=O)N[C@@H](C)C(=O)N[C@H](C(=O)O)Cc2ccc(OC[C@H](O)CN)c(c2)-c2cc1cc(OC[C@H](O)CN)c2O` [Example 15, (8S,11S,14S)-18-hydroxy-11-methyl-14-[methyl-[(2S)-2-[[4,6-dimethyl-2-[4-(1-methylcyclo-propyl)phenyl]-pyrimidine-5-carbonyl]amino]-3-(sulfamoylamino)-propanoyl]amino]-10,13-dioxo-3,17-bis[(2R)-3-amino-2-hydroxy-propoxy]-9,12-diazatricyclo-[13.3.1.12,6]icosa-1(18),2(20),3,5,15(19), 16-hexaene-8-carboxylic acid], the MIC is 8 µM (≈ 8.04 µg/mL) in assay [1] (setting [5]); 8 µM (≈ 8.04 µg/mL) in assay [1] (setting [6]); 0.5 µM (≈ 0.503 µg/mL) in assay [2] (setting [7]); 0.5 µM (≈ 0.503 µg/mL) in assay [3] (setting [8]); 8 µM (≈ 8.04 µg/mL) in assay [4] (setting [9]).
As to `C[C@@H]1NC(=O)[C@@H](N(C)C(=O)[C@H](CNS(N)(=O)=O)NC(=O)c2cnn(-c3ccc(C(C)(C)C)cc3)c(=O)c2)c2cc(OC[C@H](O)CN)c(O)c(c2)-c2cc(ccc2OC[C@H](O)CN)C[C@@H](C(=O)O)NC1=O` [Example 1, (8S,11S,14S)-18-hydroxy-11-methyl-14-[methyl-[(2S)-2-[[1-(4-tert-butylphenyl)-6-oxo-pyridazine-4-carbonyl]amino]-3-(sulfamoylamino)-propanoyl]amino]-10,13-dioxo-3,17-bis[(2R)-3-amino-2-hydroxy-propoxy]-9,12-diazatricyclo-[13.3.1.12,6]icosa-1(18),2(20),3,5,15(19), 16-hexaene-8-carboxylic acid], the MIC in assay [1] (ATCC17978, 22 h, read-out: A. baumanii 17978 Serum MIC) amounted to 24 µM (≈ 23.9 µg/mL); in assay [1] (ATCC17978, 22 h, read-out: Acinetobacter baumanii 17978 Serum MIC) it was 24 µM (≈ 23.9 µg/mL); in assay [2] (ATCC25922, 22 h), 3 µM (≈ 2.99 µg/mL); in assay [3] (ATCC700603, 22 h, read-out: K pneumoniae 700603 Serum MIC), 1.5 µM (≈ 1.49 µg/mL); in assay [4] (PA01, 22 h), 16 µM (≈ 15.9 µg/mL).
For `CCCCCOc1ccc(-c2nc(C)c(C(=O)N[C@@H](CCN)C(=O)N(C)[C@@H]3C(=O)N[C@@H](C)C(=O)N[C@H](C(=O)O)Cc4ccc(O)c(c4)-c4cc3ccc4OCCN)c(C)n2)cc1` (racemic) [Example 648], the MIC in assay [1] (setting [10]) is greater than 96 µM; in assay [2] (setting [11]), 0.6 µM (≈ 0.512 µg/mL); in assay [3] (setting [12]) it was 1.3 µM (≈ 1.11 µg/mL); in assay [4] (setting [13]), greater than 128 µM.
Consider `Cc1nc(-c2ccc3c(c2)CCC3(C)C)nc(N)c1C(=O)N[C@@H](CCN)C(=O)N(C)[C@@H]1C(=O)N[C@@H](C)C(=O)N[C@H](C(=O)O)Cc2ccc(OC[C@H](O)CN)c(c2)-c2cc1cc(OC[C@H](O)CN)c2O` [Example 47, (8S,11S,14S)-18-hydroxy-11-methyl-14-[methyl-[(2S)-4-amino-2-[[4-amino-2-(1,1-dimethylindan-5-yl)-6-methyl-pyrimidine-5-carbonyl]amino]-butanoyl]amino]-10,13-dioxo-3,17-bis[(2R)-3-amino-2-hydroxy-propoxy]-9,12-diazatricyclo-[13.3.1.12,6]icosa-1(18),2(20),3,5,15(19), 16-hexaene-8-carboxylic acid], for which the MIC in assay [1] (setting [5]) amounted to 16 µM (≈ 15.3 µg/mL); in assay [1] (setting [6]), 16 µM (≈ 15.3 µg/mL); in assay [2] (setting [7]) it was 0.25 µM (≈ 0.239 µg/mL); in assay [3] (setting [8]), 0.25 µM (≈ 0.239 µg/mL); in assay [4] (setting [9]) it was 16 µM (≈ 15.3 µg/mL).
